≈ marks a conversion by molar mass, not a printed value.
Key:
[1] = Cmax in febrile neutropenic patient with hematological malignancies at 500 mg administered as 30 mins infusion every 6 hrs; type: ADME, organism-based; set-up: dose 500 mg; details: human, in vivo, iv
Homo sapiens [2] = test: T>MIC in febrile neutropenic patient with hematological malignancies at 750 mg administered as 120 mins infusion every 6 hrs; type: functional
[3] = T>MIC in febrile neutropenic patient with hematological malignancies at 500 mg administered as infusion every 4 hrs; type: functional, Homo sapiens
Pseudomonas aeruginosa = test: Antimicrobial activity against Pseudomonas aeruginosa; type: functional
Homo sapiens [4] = test: T>MIC in febrile neutropenic patient with hematological malignancies at 500 mg administered as 30 mins infusion every 6 hrs; type: functional
Homo sapiens [5] = test: T>MIC in febrile neutropenic patient with hematological malignancies at 500 mg administered as infusion every 6 hrs; type: functional
Enterococcus = test: Antimicrobial activity against Enterococcus; type: functional
Homo sapiens [6] = species on record: Homo sapiens; test: T>MIC in febrile neutropenic patient with hematological malignancies at 6 g/day
[7] = Renal clearance in febrile neutropenic patient with hematological malignancies at 500 mg administered as 30 mins infusion every 6 hrs; type: ADME, organism-based, Kidney; details: human, in vivo, iv, read-out: CL_renal (converted)
[8] = Elimination half life in febrile neutropenic patient with hematological malignancies at 500 mg administered as 30 mins infusion every 6 hrs; type: ADME, organism-based; details: human, in vivo, iv

- Cmax [1]: 6600 ng/mL
- fT>MIC (Homo sapiens [2]): 58%
- fT>MIC [3]: 73%
- MIC90 (Pseudomonas aeruginosa): 2 µg/mL (≈ 6.68 µM)
- fT>MIC (Homo sapiens [4]): 53%
- fT>MIC (Homo sapiens [5]): 18%
- MIC90 (Enterococcus): 2 µg/mL (≈ 6.68 µM)
- fT>MIC (Homo sapiens [6]): 90%
- CL renal [7]: 79.8 mL/min
- half-life [8]: 1.43 h
SMILES: C[C@@H](O)[C@H]1C(=O)N2C(C(=O)O)=C(SCCNC=N)C[C@H]12 [IMIPENEM ANHYDROUS]
